In US7462600B2, “Macrolides” (Pfizer Inc, priority 2004, dated 2008):
Converted amounts (≈) assume the structure as drawn.

Tests used:
Assay type in all cases: cell-based
[1] = test system: Streptococcus pyogenes 1079; test: MIC, microtiter broth dilution (NCCLS M100-S14), S. pyogenes 1079 (ermB); conditions: Streptococcus pyogenes 1079
Summary of the method: (§1)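 NCCLS M100-S14 rules govern how the microdilution MICs are interpreted. Each compound starts as a 40 mg/ml solution in DMSO before dilution.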

[2] = test system: Haemophilus influenzae 1218; test: MIC, microtiter broth dilution (NCCLS M100-S14), H. influenzae 1218 (susceptible); conditions: Haemophilus influenzae 1218
Summary of the method: as §1

[3] = test system: Streptococcus pneumoniae 1175; conditions: Streptococcus pneumoniae 1175; microtiter broth dilution
Summary of the method: as §1

[4] = test system: Streptococcus pneumoniae 1095; conditions: Streptococcus pneumoniae 1095; microtiter broth dilution
Summary of the method: as §1

[5] = test system: Streptococcus pneumoniae 1016; test: MIC, microtiter broth dilution (NCCLS M100-S14), S. pneumoniae 1016 (susceptible); conditions: Streptococcus pneumoniae 1016
Summary of the method: as §1

| Structure (SMILES) | MIC S. pyogenes 1079 [1] [µg/mL] | MIC H. influenzae 1218 [2] [µg/mL] | MIC S. pneumo. 1175 [3] [µg/mL] | MIC S. pneumo. 1095 [4] [µg/mL] | MIC S. pneumo. 1016 [5] [µg/mL] |
| --- | --- | --- | --- | --- | --- |
| CCC1OC(=O)C(C)C(=O)C(C)C(OC2OC(C)CC(N(C)C)C2O)C(C)(OC)CC(C)C(=O)C(C)C2N(C3CN(Cc4ccnc5c(OC)cccc45)C3)C(=O)OC12C (stereo not drawn) [Example 1.84, 3-descladinosyl-11,12-dideoxy-6-O-methyl-3-oxo-12,11-(oxycarbonyl-(1-(8-methoxyquinoline-4-methyl)-azetidin-3-yl)-imino)erythromycin A] | 8 (≈ 9.53 µM) | 2 (≈ 2.38 µM) | <0.063 | <0.063 | <0.063 |
| CCC1OC(=O)C(C)C(=O)C(C)C(OC2OC(C)CC(N(C)C)C2O)C(C)(OC)CC(C)C(=O)C(C)C2N(C3CN(Cc4c(OC)ccc5ccccc45)C3)C(=O)OC12C (stereo not drawn) [Example 1.86, 3-descladinosyl-11,12-dideoxy-6-O-methyl-3-oxo-12,11-(oxycarbonyl-(1-(2-methoxynaphthalene-1-methyl)-azetidin-3-yl)-imino)-erythromycin A] | 1 (≈ 1.19 µM) | 1 (≈ 1.19 µM) | <0.063 | 0.125 (≈ 0.149 µM) | <0.063 |
| CCC1OC(=O)C(C)C(=O)C(C)C(OC2OC(C)CC(N(C)C)C2O)C(C)(OC)CC(C)C(=O)C(C)C2N(C3CN(Cc4ccnc5[nH]c(C6CC6)nc45)C3)C(=O)OC12C (stereo not drawn) [Example 1.89, 3-descladinosyl-11,12-dideoxy-6-O-methyl-3-oxo-12,11-(oxycarbonyl-(1-(2-cyclopropyl-3H-imidazo[4,5-b]pyridine-7-methyl)-azetidin-3-yl)-imino)-erythromycin A] | 1 (≈ 1.19 µM) | 4 (≈ 4.77 µM) | <0.063 | 0.5 (≈ 0.596 µM) | <0.063 |
| CCC1OC(=O)C(C)C(=O)C(C)C(OC2OC(C)CC(N(C)C)C2O)C(C)(OC)CC(C)C(=O)C(C)C2N(C3CN(Cc4ccnc5ccc(OC)cc45)C3)C(=O)OC12C (stereo not drawn) [Example 1.90, 3-descladinosyl-11,12-dideoxy-4-O-methyl-3-oxo-12,11-(oxycarbonyl-(1-(6-methoxyquinoline-4-methyl)-azetidin-3-yl)-imino)-erythromycin A] | 2 (≈ 2.38 µM) | 2 (≈ 2.38 µM) | <0.063 | 0.125 (≈ 0.149 µM) | <0.063 |
| CCC1OC(=O)C(C)C(=O)C(C)C(OC2OC(C)CC(N(C)C)C2O)C(C)(OC)CC(C)C(=O)C(C)C2N(C3CN(Cc4cccc5ccccc45)C3)C(=O)OC12C (stereo not drawn) [Example 1.91, 3-descladinosyl-11,12-dideoxy-6-O-methyl-3-oxo-12,11-(oxycarbonyl-(1-(naphthalene-1-methyl)-azetidin-3-yl)-imino)-erythromycin A] | 8 (≈ 9.9 µM) | 1 (≈ 1.24 µM) | <0.063 | 0.125 (≈ 0.155 µM) | <0.063 |
| CCC1OC(=O)C(C)C(=O)C(C)C(OC2OC(C)CC(N(C)C)C2O)C(C)(OC)CC(C)C(=O)C(C)C2N(C3CN(Cc4c(C)ccc5ccccc45)C3)C(=O)OC12C (stereo not drawn) [Example 1.92, 3-descladinosyl-11,12-dideoxy-6-O-methyl-3-oxo-12,11-(oxycarbonyl-(1-(2-methylnaphthalene-1-methyl)-azetidin-3-yl)-imino)erythromycin A] | 2 (≈ 2.43 µM) | 2 (≈ 2.43 µM) | <0.063 | 0.125 (≈ 0.152 µM) | <0.063 |
